Columns and labels:
Assay in all cases: relative viability (nuclei count vs DMSO), 5 days (fraction); higher = more cells survive
[1] = compound: CC1=CC=C(C=C1)C(=O)CN2C3=C(CCCC3)SC2=N [Pifithrin_alpha] + N=C(N)NC(=N)NCCc1ccccc1 [Phenformin] (partner 250 µM)
Summary of the method: (§1)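 Lung cancer cell lines were pin-tool dosed in 1536-well plates on the day after seeding, with either a lone drug or a fixed anchor-drug dose plus five library-drug doses (not always all listed) in √10 steps. Nuclei were counted on 4× images after 5 days. Relative viability is the ratio of treated-well to vehicle-well nuclei counts, with each value a median of duplicate plates.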

Axitinib + Lapatinib = compound: CNC(=O)c1ccccc1Sc1ccc2c(/C=C/c3ccccn3)n[nH]c2c1 [Axitinib] + CS(=O)(=O)CCNCc1ccc(-c2ccc3ncnc(Nc4ccc(OCc5cccc(F)c5)c(Cl)c4)c3c2)o1 [Lapatinib] (partner 2 µM)
Summary of the method: as §1

Bemcentinib + Phenformin = compound: Nc1nc(Nc2ccc3c(c2)CC[C@@H](N2CCCC2)CC3)nn1-c1cc2c(nn1)-c1ccccc1CCC2 [Bemcentinib] + N=C(N)NC(=N)NCCc1ccccc1 [Phenformin] (partner 250 µM)
Summary of the method: as §1

Bemcentinib + Olaparib = compound: Nc1nc(Nc2ccc3c(c2)CC[C@@H](N2CCCC2)CC3)nn1-c1cc2c(nn1)-c1ccccc1CCC2 [Bemcentinib] + O=C(c1cc(Cc2n[nH]c(=O)c3ccccc23)ccc1F)N1CCN(C(=O)C2CC2)CC1 [Olaparib] (partner 8 µM)
Summary of the method: as §1

Row | Cell Line | relative viability ([1]; first compound 1 µM) | relative viability ([1]; first compound 3.162 µM) | relative viability ([1]; first compound 10 µM) | relative viability ([1]; first compound 31.62 µM) | relative viability ([1]; first compound 100 µM) | relative viability (Axitinib + Lapatinib; first compound 0.005 µM) | relative viability (Axitinib + Lapatinib; first compound 0.01581 µM) | relative viability (Axitinib + Lapatinib; first compound 0.05 µM) | relative viability (Axitinib + Lapatinib; first compound 0.1581 µM) | relative viability (Axitinib + Lapatinib; first compound 0.5 µM) | relative viability (Bemcentinib + Phenformin; first compound 0.04 µM) | relative viability (Bemcentinib + Phenformin; first compound 0.1265 µM) | relative viability (Bemcentinib + Phenformin; first compound 0.4 µM) | relative viability (Bemcentinib + Phenformin; first compound 1.265 µM) | relative viability (Bemcentinib + Phenformin; first compound 4 µM) | relative viability (Bemcentinib + Olaparib; first compound 0.1265 µM) | relative viability (Bemcentinib + Olaparib; first compound 0.4 µM) | relative viability (Bemcentinib + Olaparib; first compound 1.265 µM) | relative viability (Bemcentinib + Olaparib; first compound 4 µM) | relative viability (Bemcentinib + Olaparib; first compound 0.04 µM)
1 | NCI-H1395 | 0.428 | 0.433 | 0.411 | 0.416 | 0.41 | 1.31 | 0.887 | 1.12 | 0.792 | 0.922 | 0.406 | 0.43 | 0.434 | 0.451 | 0.446 | 0.474 | 0.462 | 0.497 | 0.463 | –
2 | NCI-H1437 | 0.296 | 0.258 | 0.294 | 0.264 | 0.259 | 0.851 | 0.743 | 0.91 | 0.733 | 0.926 | 0.305 | 0.33 | 0.375 | 0.3 | 0.296 | 0.656 | 0.718 | 0.651 | 0.592 | 0.639
3 | NCI-H1650 | – | 0.446 | 0.333 | 0.273 | 0.349 | 0.928 | 0.532 | 0.884 | 0.715 | 0.818 | 0.368 | 0.477 | 0.583 | 0.43 | 0.394 | 0.822 | 0.818 | 0.77 | 0.739 | 0.692
4 | NCI-H1651 | 0.345 | 0.351 | 0.387 | 0.26 | 0.317 | 0.89 | 0.706 | 0.929 | 0.713 | 0.942 | 0.352 | 0.324 | 0.283 | 0.316 | 0.354 | 0.204 | 0.187 | 0.189 | 0.191 | 0.201
5 | NCI-H1666 | 0.525 | 0.52 | 0.425 | 0.455 | 0.436 | 0.767 | 0.741 | 0.608 | 0.62 | 0.946 | 0.572 | 0.675 | 0.564 | 0.564 | 0.635 | 0.887 | 0.731 | 0.713 | 0.713 | 0.742
6 | NCI-H1734 | 0.358 | 0.456 | 0.372 | 0.362 | 0.376 | 1.03 | 1.07 | 1.15 | 1.02 | 0.954 | 0.406 | 0.384 | 0.42 | 0.434 | 0.372 | 0.754 | 0.649 | 0.603 | 0.642 | 0.634
7 | NCI-H1755 | 0.605 | 0.603 | 0.57 | 0.423 | 0.53 | 1.06 | 0.998 | 1.06 | 1.04 | 0.99 | 0.652 | 0.62 | 0.648 | 0.59 | 0.622 | 0.868 | 0.929 | 0.951 | 0.935 | 0.92
8 | NCI-H1792 | 0.292 | – | 0.472 | – | 0.372 | 0.921 | 0.834 | 1.01 | 0.876 | 0.653 | 0.293 | 0.293 | 0.326 | 0.193 | 0.248 | 0.353 | 0.538 | 0.391 | 0.498 | 0.496
9 | NCI-H1793 | – | 0.339 | 0.306 | 0.33 | 0.329 | 0.768 | 0.609 | 1.17 | 0.571 | 0.526 | 0.395 | 0.463 | 0.384 | – | 0.336 | 1.16 | 0.987 | 0.961 | 0.842 | 0.852
10 | NCI-H1915 | 0.385 | 0.424 | – | – | 0.435 | 0.994 | 0.99 | 0.994 | 0.922 | 1 | 0.376 | 0.375 | 0.372 | 0.383 | 0.353 | 0.242 | 0.243 | 0.232 | 0.26 | 0.282
11 | NCI-H1944 | 0.165 | 0.209 | 0.191 | 0.166 | 0.22 | 0.86 | 0.802 | 0.907 | 0.827 | 0.68 | 0.202 | 0.211 | 0.219 | 0.217 | 0.206 | 0.414 | 0.418 | 0.436 | 0.424 | 0.413
12 | NCI-H1975 | 0.394 | 0.38 | 0.373 | 0.337 | 0.364 | 1.02 | 0.841 | 0.899 | 0.871 | 0.953 | 0.405 | 0.428 | 0.428 | 0.437 | 0.417 | 0.954 | 0.951 | 0.849 | 0.749 | 0.803
13 | NCI-H1993 | 0.474 | 0.461 | 0.49 | 0.547 | 0.511 | 0.952 | 0.971 | 0.841 | 0.735 | 0.731 | 0.465 | 0.501 | 0.528 | 0.505 | 0.487 | 1.23 | 1 | 1.15 | 1.16 | 1.05
14 | NCI-H2009 | 0.483 | 0.467 | 0.451 | 0.345 | 0.422 | 0.92 | 1.05 | 0.9 | 1.02 | 0.9 | 0.497 | 0.544 | 0.489 | 0.466 | 0.418 | 0.778 | 0.734 | 0.698 | 0.697 | 0.651
15 | NCI-H2023 | 0.521 | 0.485 | 0.456 | – | 0.389 | 0.752 | 0.924 | 1.03 | 0.775 | 0.759 | 0.398 | 0.445 | 0.424 | 0.423 | 0.365 | 0.487 | 0.463 | 0.511 | 0.501 | 0.461
16 | NCI-H2085 | – | 0.597 | 0.686 | 0.65 | 0.619 | 0.803 | 0.778 | 0.798 | 0.755 | 0.684 | 0.694 | 0.776 | 0.688 | 0.572 | 0.697 | 0.707 | 0.768 | 0.755 | 0.741 | 0.747
17 | NCI-H2087 | 0.356 | 0.488 | 0.485 | – | 0.451 | 1 | 1.26 | 0.947 | 0.864 | 1.2 | 0.435 | 0.481 | 0.52 | 0.492 | 0.487 | 0.65 | 0.616 | 0.614 | 0.644 | 0.638
18 | NCI-H2126 | 0.475 | 0.498 | 0.499 | 0.464 | 0.427 | 0.765 | 0.745 | 0.771 | 0.71 | 0.729 | 0.502 | 0.496 | 0.51 | 0.596 | 0.568 | 0.931 | 0.948 | 1.01 | 0.916 | 0.999
19 | NCI-H2170 | 0.411 | 0.41 | 0.376 | 0.321 | 0.358 | 0.269 | 0.257 | 0.277 | 0.256 | 0.257 | 0.402 | 0.429 | 0.456 | 0.389 | 0.435 | 0.661 | 0.567 | 0.583 | 0.589 | 0.563
20 | NCI-H2228 | 0.312 | 0.265 | 0.374 | 0.256 | 0.205 | 1.28 | 0.959 | 1.09 | 1.29 | 1.39 | 0.157 | 0.329 | 0.395 | 0.346 | 0.295 | 0.616 | 0.593 | 0.707 | 0.749 | 0.379
21 | NCI-H2347 | 0.452 | 0.471 | 0.394 | 0.416 | 0.543 | 0.979 | 0.971 | 0.966 | 1.04 | 0.922 | 0.423 | 0.447 | 0.329 | 0.364 | 0.334 | 0.587 | 0.553 | 0.659 | 0.611 | 0.58
22 | NCI-H2405 | 0.371 | 0.504 | 0.481 | 0.463 | 0.479 | 1.09 | 1.06 | 1.34 | 1.07 | 1.02 | 0.409 | 0.412 | 0.385 | 0.372 | 0.376 | 0.938 | 0.959 | 0.975 | 0.91 | 0.83
23 | NCI-H3122 | 0.376 | 0.356 | 0.327 | – | 0.283 | 1.03 | 0.977 | 1.04 | 1.04 | 1.13 | – | 0.412 | 0.366 | 0.358 | 0.381 | 0.652 | 0.637 | 0.678 | 0.68 | 0.651
24 | PC-3 [JPC-3] | 0.497 | 0.482 | 0.409 | 0.47 | 0.488 | 0.483 | – | 0.453 | 0.445 | 0.447 | 0.477 | 0.454 | 0.473 | 0.497 | 0.448 | 1.15 | 1.17 | 1.11 | 1.06 | 1.08
25 | PC-14 | 0.536 | 0.567 | 0.525 | 0.406 | 0.413 | 0.294 | 0.288 | 0.402 | 0.278 | 0.332 | 0.458 | 0.704 | 0.648 | 0.581 | 0.465 | 0.433 | 0.235 | 0.225 | 0.187 | 0.279
26 | RERF-LC-KJ | 0.454 | 0.402 | 0.368 | 0.316 | 0.263 | 0.865 | 0.829 | 0.824 | 0.809 | 0.932 | 0.42 | 0.424 | 0.412 | 0.391 | 0.334 | 0.928 | 0.896 | 0.976 | 0.782 | 0.873
27 | SK-LU-1 | 0.511 | 0.624 | 0.49 | – | 0.625 | 0.976 | 0.951 | 0.942 | 0.835 | 1.39 | 0.521 | 0.633 | 0.485 | 0.548 | 0.6 | 0.569 | 0.452 | 0.47 | 0.488 | 0.456
28 | SK-MES-1 | 0.571 | 0.67 | 0.659 | 0.474 | 0.571 | 0.492 | 0.454 | 0.53 | 0.446 | 0.547 | 0.687 | 0.691 | 0.652 | 0.758 | 0.667 | 0.771 | 0.734 | 0.823 | 0.682 | 0.833
29 | SW 1573 | 0.357 | 0.39 | 0.436 | 0.37 | 0.346 | 1.15 | 1.09 | 1.29 | 1.06 | 1.03 | 0.415 | 0.373 | 0.363 | 0.368 | 0.365 | 0.437 | 0.558 | 0.465 | 0.438 | 0.504
30 | UMC-11 | 0.312 | 0.337 | 0.322 | 0.287 | 0.303 | 0.945 | 1.06 | 0.959 | 0.916 | 0.943 | 0.324 | 0.355 | 0.365 | 0.314 | 0.312 | 0.678 | 0.322 | 0.352 | 0.384 | 0.366

— the supplement of paper PMC10307832
